Experimental data from patent US20250009877A1, “TREATMENT FOR CANCER” (Seagen Inc., priority 2021, published 2025).

Legend:
murine CD40 = murine CD40 (Mus musculus, UniProt P27512); assay: Recognition of murine CD40; type: binding
CD40 signaling pathway = settings: compared to the parent antibody dacetuzumab; cited from earlier work
FcγIII receptors = settings: compared to the fucosylated parent antibody dacetuzumab; cited from earlier work
interleukin-10 (IL-10) = assay: Induction of immune-dampening cytokines; settings: unlike fully agonistic antibodies such as antibody 24.4.1

Chain of murine CD40 (P27512 20-289): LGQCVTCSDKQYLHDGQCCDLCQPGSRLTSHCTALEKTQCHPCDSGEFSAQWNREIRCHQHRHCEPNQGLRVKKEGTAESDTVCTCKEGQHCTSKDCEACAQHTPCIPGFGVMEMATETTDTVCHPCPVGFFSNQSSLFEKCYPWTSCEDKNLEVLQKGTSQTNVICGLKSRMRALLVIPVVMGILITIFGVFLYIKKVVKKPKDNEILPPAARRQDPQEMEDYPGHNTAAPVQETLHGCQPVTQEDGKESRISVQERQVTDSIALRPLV

## SEA-CD40: non-fucosylated humanized S2C6 anti-CD40 antibody; heavy chain SEQ ID NO: 1, light chain SEQ ID NO: 2; parent antibody dacetuzumab
Murine CD40
  recognition of murine CD40: does not recognize
CD40 signaling pathway
  ability to activate the CD40 signaling pathway in immune cells: enhanced ability to activate
FcγIII receptors
  binding to FcγIII receptors: enhanced binding
interleukin-10 (IL-10)
  production of immune-dampening cytokines such as interleukin-10 (IL-10): does not induce production
